These are literature values, as cited in article PMC2692938 (Nuclear medicine and biology, 2009).

In the series the test system is αvβ3. The following applies: selective αvβ3 antagonist.

As for c(RGDfV), the IC50 values entry is on record as “lower nanomolar range”.
